Data published in patent publication US20030148960A1, “Combination therapy of angiotensin converting enzyme inhibitor and side-effect-reduced amount of aldosterone antagonist for treatment of cardiovascular disease” (G.D. Searle & Co., priority 1995, published 2003).

Tests used:
[1] = tested on: patients with symptomatic heart failure; assay: Human clinical trial: incidence and predictors of hyperkalemia (Cox regression); conditions: type of ACE-I as predictor; step-wise Cox regression; patients on spironolactone or placebo
Description: In this, analysis, the risk ratio can be thought of as the probability that the patient with the risk factor will develop hyperkalemia, relative to the probability that a patient without the risk factor will develop it.

[2] = tested on: patients with symptomatic heart failure; assay: Human clinical trial: hospitalizations and deaths; assay type: in vivo
Description: A breakdown of the hospitalizations is as follows:

[3] = tested on: patients with symptomatic heart failure; assay: Human clinical trial: clinical laboratory values (neurohormones, hematology, biochemistry); conditions: for PRA (plasma renin activity), Week 12 mean change: Week 12 vs baseline, with stable ACE inhibitor and loop diuretic
[4] = tested on: refractory CHF; conditions: 50 mg/day to 100 mg/day (average 73 mg/day) in combination with captopril; cited from earlier work
[5] = tested on: myocardial fibrosis in animal models; conditions: cited from earlier work
[6] = tested on: patients with symptomatic heart failure; assay: Human clinical trial: cardiac assessments and changes in patient therapy; assay type: in vivo
Description: (§1) Cardiac assessments that included blood pressure, pulse, sodium retention score (general assessment of a patient's edematous state was derived from the summation of scores obtained from Table I), NYHA classification, and
All statistical methods were two-sided.

[7] = tested on: patients with symptomatic heart failure; assay: Human clinical trial: change in weight and vital signs; assay type: in vivo
Description: Laboratory Measurements: The following information was obtained from each patient at baseline:
as §1
All statistical methods were two-sided.

[8] = tested on: patients afflicted with congestive heart failure; conditions: 100 mg/day coadministered with an ACE inhibitor; cited from earlier work
[9] = tested on: patients with symptomatic heart failure; assay: Human clinical trial: incidence of adverse events, intent-to-treat cohort; assay type: in vivo

With `C[C@H](CS)C(=O)N1CCC[C@H]1C(=O)O` [Captopril, captopril] the “Risk ratio of hyperkalemia, captopril vs other ACE-I” value [1] was “about one-third”.

For `CC(=O)S[C@@H]1CC2=CC(=O)CC[C@]2(C)[C@H]2CC[C@@]3(C)[C@@H](CC[C@@]34CCC(=O)O4)[C@H]12` [Spironolactone, 17-hydroxy-7α-mercapto-3-oxo-17α-pregn-4-ene-21-carboxylic acid γ-lactone acetate], the “Hospitalizations, number of patients” value ([2]; 12.5 mg) was 3 Patients, the “Hospitalizations, percent of patients” value ([2]; 12.5 mg) was “(7.3%)” and the “Hospitalizations, number of patients” value ([2]; 25 mg) was 3 Patients. For the same compound, the “Hospitalizations, percent of patients” value ([2]; 25 mg) was “(6.6%)”, the “Hospitalizations, number of patients” value ([2]; 50 mg) was 13 Patients and the “Hospitalizations, percent of patients” value ([2]; 50 mg) was “(27.6%)”. For the same compound, the “Hospitalizations, number of patients” value ([2]; 75 mg) was 6 Patients, the “Hospitalizations, percent of patients” value ([2]; 75 mg) was “(14.6%)” and the “Deaths within 30 days after the study was completed” value ([2]; patients previously at the 50 mg dose) was “Three patients died within 30 days after the study was completed”. For the same compound, the “PRA (plasma renin activity), Week 12 mean change” value (from here on “PRA … Week 12 mean change”) ([3]; 12.5 mg/d) was 9.90 NgAngl/L/s, the “PRA … Week 12 mean change” value ([3]; 25 mg/d) was 9.33 NgAngl/L/s and the “PRA … Week 12 mean change” value ([3]; 50 mg/d) was 13.18 NgAngl/L/s. The “PRA … Week 12 mean change” value ([3]; 75 mg/d) was 10.23 NgAngl/L/s, the “Change from baseline in PRA, dose response” value ([3]; Day 9, Week 4 and Week 12, P≦0.001) was “higher doses of spironolactone associated with greater increases in PRA” and the “N-Terminal ANF change from baseline” value ([3]; all active treatments, all treatment visits) was “decreases from baseline”. The “Change from baseline in serum potassium, dose response” value ([3]; all treatment period visits, p<0.001) was “Higher doses of spironolactone were associated with larger increases in potassium”, the “Urinary aldosterone excretion, dose response” value ([3]; baseline to 12 week visit, p=0.002) was “Greater increases were seen at higher doses” and the “Control of refractory CHF” value [4] was “effective to control refractory CHF without serious incidents of hyperkalemia”. The “Effect on myocardial fibrosis” value [5] was “prevents myocardial fibrosis”, the “Sodium retention score, dose response” value ([6]; Day 9, p=0.019, not seen at later visits) was “higher doses showing more reduction in sodium retention score” and the “Changes in loop diuretic therapy” value ([6]; Week 8, p=0.004, not observed at Week 12) was “more patients on the higher doses of spironolactone had decreases in the loop diuretic dose compared to the placebo group”. For the same compound, the “NYHA Class” value ([6]; spironolactone groups vs placebo) was “the difference was not statistically significant”, the “Change in mean systolic and diastolic blood pressure (standing and supine)” value ([7]; 25 mg, 50 mg and 75 mg groups, all visits) was “decreases in mean systolic and diastolic blood pressure” and the “Mean change in weight from baseline to Week 12” value ([7]; 50 mg/d, Week 12, with stable ACE inhibitor and loop diuretic) was 0.62 (2.05). The “Change from baseline in body weight, dose response” value ([7]; 75 mg dose group, Day 9 and Week 4) was “more weight loss than other patients”, the “Patients in whom treatment was highly effective” value [8] was 13 of 16 and the “Incidence of URT infection” value ([9]; 12.5 mg) was 4.9 Percentage of Patients. The “Incidence of abdominal pain” value ([9]; 12.5 mg) was 7.3 Percentage of Patients, the “Incidence of angina pectoris” value ([9]; 12.5 mg) was 19.5 Percentage of Patients and the Incidence of arthralgia ([9]; 12.5 mg) was 4.9 Percentage of Patients. For the same compound, the Incidence of coughing ([9]; 12.5 mg) was 4.9 Percentage of Patients, the Incidence of diarrhea ([9]; 12.5 mg) was 4.9 Percentage of Patients and the Incidence of dizziness ([9]; 12.5 mg) was 12.2 Percentage of Patients. For the same compound, the Incidence of dyspnea ([9]; 12.5 mg) was 22.0 Percentage of Patients, the Incidence of fatigue ([9]; 12.5 mg) was 12.2 Percentage of Patients and the Incidence of headache ([9]; 12.5 mg) was 9.8 Percentage of Patients. The “Incidence of hyperkalemia (adverse event)” value (“Incidence of hyperkalemia” below) ([9]; 12.5 mg) was 2.4 Percentage of Patients, the Incidence of nausea ([9]; 12.5 mg) was 2.4 Percentage of Patients and the “Incidence of URT infection” value ([9]; 25 mg) was 11.1 Percentage of Patients. The “Incidence of abdominal pain” value ([9]; 25 mg) was 8.9 Percentage of Patients, the “Incidence of angina pectoris” value ([9]; 25 mg) was 20.0 Percentage of Patients and the Incidence of arthralgia ([9]; 25 mg) was 4.4 Percentage of Patients. The Incidence of coughing ([9]; 25 mg) was 2.2 Percentage of Patients, the Incidence of diarrhea ([9]; 25 mg) was 22.2 Percentage of Patients and the Incidence of dizziness ([9]; 25 mg) was 13.3 Percentage of Patients. The Incidence of dyspnea ([9]; 25 mg) was 15.6 Percentage of Patients, the Incidence of fatigue ([9]; 25 mg) was 13.3 Percentage of Patients and the Incidence of headache ([9]; 25 mg) was 2.2 Percentage of Patients. For the same compound, the “Incidence of hyperkalemia” value ([9]; 25 mg) was 8.9 Percentage of Patients, the Incidence of nausea ([9]; 25 mg) was 17.8 Percentage of Patients and the “Incidence of URT infection” value ([9]; 50 mg) was 8.7 Percentage of Patients. For the same compound, the “Incidence of abdominal pain” value ([9]; 50 mg) was 13.0 Percentage of Patients, the “Incidence of angina pectoris” value ([9]; 50 mg) was 8.7 Percentage of Patients and the Incidence of arthralgia ([9]; 50 mg) was 8.7 Percentage of Patients. The Incidence of coughing ([9]; 50 mg) was 4.3 Percentage of Patients, the Incidence of diarrhea ([9]; 50 mg) was 8.7 Percentage of Patients and the Incidence of dizziness ([9]; 50 mg) was 13.0 Percentage of Patients. For the same compound, the Incidence of dyspnea ([9]; 50 mg) was 26.1 Percentage of Patients, the Incidence of fatigue ([9]; 50 mg) was 15.2 Percentage of Patients and the Incidence of headache ([9]; 50 mg) was 15.2 Percentage of Patients. The “Incidence of hyperkalemia” value ([9]; 50 mg) was 15.2 Percentage of Patients, the Incidence of nausea ([9]; 50 mg) was 6.5 Percentage of Patients and the “Incidence of URT infection” value ([9]; 75 mg) was 2.4 Percentage of Patients. For the same compound, the “Incidence of abdominal pain” value ([9]; 75 mg) was 7.3 Percentage of Patients, the “Incidence of angina pectoris” value ([9]; 75 mg) was 14.6 Percentage of Patients and the Incidence of arthralgia ([9]; 75 mg) was 4.9 Percentage of Patients. For the same compound, the Incidence of coughing ([9]; 75 mg) was 2.4 Percentage of Patients, the Incidence of diarrhea ([9]; 75 mg) was 14.6 Percentage of Patients and the Incidence of dizziness ([9]; 75 mg) was 17.1 Percentage of Patients. For the same compound, the Incidence of dyspnea ([9]; 75 mg) was 24.4 Percentage of Patients, the Incidence of fatigue ([9]; 75 mg) was 14.6 Percentage of Patients and the Incidence of headache ([9]; 75 mg) was 7.3 Percentage of Patients. The “Incidence of hyperkalemia” value ([9]; 75 mg) was 19.5 Percentage of Patients and the Incidence of nausea ([9]; 75 mg) was 19.5 Percentage of Patients.
